From US12180226B2, “Spirotricycle RIPK1 inhibitors and methods of uses thereof” (Merck Sharp & Dohme LLC, priority 2021, dated 2024)
pEC50: −log10 of the molar value. Where a name gives a salt, the structure may show the parent alone.

molecular target: RIPK1 (recombinant GST-RIPK1 kinase domain, residues 1-327) (Homo sapiens (Human), UniProt Q13546); test: RIPK1-ADP-Glo Enzymatic Assay; format: biochemical; details: ADP-Glo; 25 nM GST-RIPK1, 300 μM ATP; assay lower limit ~25 nM; read-out: RIPK1 V0 Ec50
Sequence (Q13546 1-327): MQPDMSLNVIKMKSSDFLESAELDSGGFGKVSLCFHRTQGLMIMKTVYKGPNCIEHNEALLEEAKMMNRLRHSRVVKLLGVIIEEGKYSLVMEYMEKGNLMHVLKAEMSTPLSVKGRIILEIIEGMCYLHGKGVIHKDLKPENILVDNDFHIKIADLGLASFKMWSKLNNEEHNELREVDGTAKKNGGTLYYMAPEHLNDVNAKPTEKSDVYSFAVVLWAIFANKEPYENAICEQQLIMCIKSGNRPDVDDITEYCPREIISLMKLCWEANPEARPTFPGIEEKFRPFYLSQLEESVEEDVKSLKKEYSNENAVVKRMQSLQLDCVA
Procedure, shortened: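 Luminescent ADP-Glo readout of ATP-to-ADP conversion. Conditions: 25 nM enzyme, 300 μM ATP, 3 μM dephospho-MBP, pH 7.3 HEPES buffer with 20 mM MgCl2; 30 min compound pre-incubation, 150 min reaction. EC50 via four-parameter sigmoidal regression; assay floor ~25 nM.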

| Compound | pEC50 |
| --- | --- |
| O=C1N2[C@@H](CC[C@H]2c2ccccc2)OC12CCN(c1ccc(C(F)F)c3ncnn13)CC2 [Example 4.269, (5′S,7a′R)-1-[8-(difluoromethyl)[1,2,4]triazolo[1,5-a]pyridin-5-yl]-5′-phenyltetrahydro-3′H-spiro[piperidine-4,2′-pyrrolo[2,1-b] [1,3]oxazol]-3′-one] | > 7.60 |
| Cc1nc(N2CCC3(CC2)C[C@@H]2OC[C@@H](c4ccccc4)N2C3=O)ccc1C#N [Example 4.78, 2-methyl-6-[(3′R,7a′S)-5′-oxo-3′-phenyltetrahydro-1H,5′H-spiro[piperidine-4,6′-pyrrolo[2,1-b] [1,3]oxazol]-1-yl]pyridine-3-carbonitrile] | 7.23 |
| O=C1N2[C@@H](CC[C@H]2c2ccccc2)OC12CCN(c1ncc(Br)c3ncnn13)CC2 [Example 4.239, (5′S,7a′R)-1-(8-bromo [1,2,4]triazolo[1,5-c]pyrimidin-5-yl)-5′-phenyltetrahydro-3′H-spiro[piperidine-4,2′-pyrrolo[2,1-b] [1,3]oxazol]-3′-one] | > 7.60 |
| CSc1cc(N2CCC3(CC2)O[C@@H]2CC[C@@H](c4cc(F)cc(F)c4)N2C3=O)ncc1C#N [Example 4.71, 6-[(5′S,7a′R)-5′-(3,5-difluorophenyl)-3′-oxotetrahydro-1H,3′H-spiro[piperidine-4,2′-pyrrolo[2,1-b] [1,3]oxazol]-1-yl]-4-(methylsulfanyl)pyridine-3-carbonitrile] | 7.52 |
| O=C1N2[C@@H](CC[C@H]2c2ccccc2)OC12CCN(c1nc3ccncc3o1)CC2 [Example 4.158, (5′S,7a′R)-1-([1,3]oxazolo[5,4-c]pyridin-2-yl)-5′-phenyltetrahydro-3′H-spiro[piperidine-4,2′-pyrrolo[2,1-b] [1,3]oxazol]-3′-one] | 7.29 |
| O=C1N2[C@@H](CC[C@H]2c2ccccc2)OC12CCN(c1ccc(-c3nc4ccccc4[nH]3)cn1)CC2 [Example 4.166, (5′S,7a′R)-1-[5-(1H-benzimidazol-2-yl)pyridin-2-yl]-5′-phenyltetrahydro-3′H-spiro[piperidine-4,2′-pyrrolo[2,1-b] [1,3]oxazol]-3′-one] | 7.25 |
| CN(C)C(=O)c1ccc(N2CCC3(CC2)O[C@@H]2CC[C@@H](c4ccccc4)N2C3=O)nc1 [Example 4.167, N,N-dimethyl-6-[(5′S,7a′R)-3′-oxo-5′-phenyltetrahydro-1H,3′H-spiro[piperidine-4,2′-pyrrolo[2,1-b] [1,3]oxazol]-1-yl]pyridine-3-carboxamide] | 6.59 |
| N#Cc1ccnc(N2CCC3(CC2)O[C@@H]2CC[C@@H](c4cc(F)cc(F)c4)N2C3=O)n1 [Example 4.12, 2-[(5′S,7a′R)-5′-(3,5-difluorophenyl)-3′-oxotetrahydro-1H,3′H-spiro[piperidine-4,2′-pyrrolo[2,1-b] [1,3]oxazol]-1-yl]pyrimidine-4-carbonitrile] | > 7.60 |
| O=C1N2[C@@H](CC[C@H]2c2ccc(F)cc2)OC12CCN(c1ccnc3c(F)cnn13)CC2 [Example 4.124, (5′S,7a′R)-5′-(4-fluorophenyl)-1-(3-fluoropyrazolo[1,5-a]pyrimidin-7-yl)tetrahydro-3′H-spiro[piperidine-4,2′-pyrrolo[2,1-b] [1,3]oxazol]-3′-one] | > 7.60 |
| N#Cc1ccc(N2CCC3(CC2)O[C@@H]2CC[C@@H](c4ccccc4)N2C3=O)n2ncc(F)c12 [Example 4.177, 3-fluoro-7-[(5′S,7a′R)-3′-oxo-5′-phenyltetrahydro-1H,3′H-spiro[piperidine-4,2′-pyrrolo[2,1-b] [1,3]oxazol]-1-yl]pyrazolo[1,5-a] pyridine-4-carbonitrile] | > 7.60 |
| CCOC(=O)c1nc(N2CCC3(CC2)O[C@@H]2CC[C@@H](c4cc(F)cc(F)c4)N2C3=O)ncc1F [Example 4.205, ethyl 2-[(5′S,7a′R)-5′-(3,5-difluorophenyl)-3′-oxotetrahydro-1H,3′H-spiro[piperidine-4,2′-pyrrolo[2,1-b] [1,3]oxazol]-1-yl]-5-fluoropyrimidine-4-carboxylate] | 7.20 |
| O=C1N2[C@H](OC13CCN(c1ccnc4c(F)cnn14)CC3)[C@H](O)C[C@H]2c1ccccc1 [Example 4.149, (5′S,7′R,7a′R)-1-(3-fluoropyrazolo[1,5-a]pyrimidin-7-yl)-7′-hydroxy-5′-phenyltetrahydro-3′H-spiro[piperidine-4,2′-pyrrolo[2,1-b] [1,3]oxazol]-3′-one] | > 7.60 |
| Cc1cn(-c2cc(N3CCC4(CC3)O[C@@H]3CC[C@@H](c5ccccc5)N3C4=O)ncn2)cn1 [Example 4.172, (5′S,7a′R)-1-[6-(4-methyl-1H-imidazol-1-yl)pyrimidin-4-yl]-5′-phenyltetrahydro-3′H-spiro[piperidine-4,2′-pyrrolo[2,1-b] [1,3]oxazol]-3′-one] | 7.60 |

Second part, the compound after the results:

| pEC50 | Compound |
| --- | --- |
| > 7.60 | O=C1N2[C@@H](CC[C@H]2c2cc(F)cc(F)c2)OC12CCN(c1cccc3ncnn13)CC2 [Example 13.2, (5′S,7a′R)-1-([1,2,4]triazolo[1,5-a]pyridin-5-yl)-5′-(3,5-difluorophenyl)tetrahydro-3′H-spiro[piperidine-4,2′-pyrrolo[2,1-b]oxazol]-3′-one, TFA salt] |
| > 7.60 | O=C1N2[C@@H](CC[C@H]2c2ccccc2F)OC12CCN(c1ccnc(-c3cnn(C(F)F)c3)c1)CC2 [Example 10.4, (5′S,7a′R)-1-{2-[1-(difluoromethyl)-1H-pyrazol-4-yl]pyridin-4-yl}-5′-(2-fluorophenyl)tetrahydro-3′H-spiro[piperidine-4,2′-pyrrolo[2,1-b][1,3]oxazol]-3′-one] |
| 6.88 | O=C1N2[C@@H](CC[C@H]2c2ccccc2)OC12CCN(c1csc(C(F)F)c1)CC2 [Example 11.26, (5′S,7a′R)-1-[5-(difluoromethyl)thiophen-3-yl]-5′-phenyltetrahydro-3′H-spiro[piperidine-4,2′-pyrrolo[2,1-b][1,3]oxazol]-3′-one] |
| > 7.60 | O=C1N2[C@@H](CC[C@H]2c2ccccc2)OC12CCN(c1ncc(-c3ncco3)c(C(F)F)n1)CC2 [Example 21.3, (5′S,7a′R)-1-[4-(difluoromethyl)-5-(1,3-oxazol-2-yl)pyrimidin-2-yl]-5′-phenyltetrahydro-3′H-spiro[piperidine-4,2′-pyrrolo[2,1-b][1,3]oxazol]-3′-one] |
| 6.87 | O=C(c1cnc2cnccn12)N1CCC2(CC1)O[C@@H]1CC[C@@H](c3cc(F)cc(F)c3)N1C2=O [Example 5.67, (5′S,7a′R)-5′-(3,5-difluoro-phenyl)-1-(imidazo[1,2-a]pyrazine-3-carbonyl)-tetrahydro-3′H-spiro [piperidine-4,2′-pyrrolo-[2,1-b]oxazol]-3′-one] |
| 6.12 | Cc1cncc(C(=O)N2CCC3(CC2)O[C@@H]2CC[C@@H](c4cc(F)cc(F)c4)N2C3=O)n1 [Example 6.4, (5′S,7a′R)-5′-(3,5-difluorophenyl)-1-(6-methylpyrazine-2-carbonyl)tetrahydro-3′H-spiro[piperidine-4,2′-pyrrolo[2,1-b] [1,3]oxazol]-3′-one] |
| > 7.60 | C#Cc1cnc(N2CCC3(CC2)O[C@@H]2CC[C@@H](c4ccccc4)N2C3=O)n2ncnc12 [Example 21.23, (5′S,7a′R)-1-(8-ethynyl[1,2,4]triazolo [1,5-c]pyrimidin-5-yl)-5′-phenyltetrahydro-3′H-spiro[piperidine-4,2′-pyrrolo[2,1-b][1,3]oxazol]-3′-one] |
| 6.67 | O=C(c1ccsc1-n1nccn1)N1CCC2(CC1)O[C@@H]1CC[C@@H](c3cc(F)cc(F)c3)N1C2=O [Example 6.68, (5′S,7a′R)-5′-(3,5-difluorophenyl)-1-[2-(2H-1,2,3-triazol-2-yl)thiophene-3-carbonyl]tetrahydro-3′H-spiro[piperidine-4,2′-pyrrolo[2,1-b] [1,3]oxazol]-3′-one] |
| 7.57 | Cn1ccc(C(=O)N2CCC3(CC2)O[C@@H]2CC[C@@H](c4cc(F)cc(F)c4)N2C3=O)c1 [Example 5.47, (5′S,7a′R)-5′-(3,5-difluoro-phenyl)-1-(1-methyl-1H-pyrrole-3-carbonyl)tetra-hydro-3′H-spiro[piperidine-4,2′-pyrrolo[2,1-b]oxazol]-3′-one] |
| 6.87 | Cc1nc(C(=O)N2CCC3(CC2)O[C@@H]2CC[C@@H](c4cc(F)cc(F)c4)N2C3=O)no1 [Example 6.20, (5′S,7a′R)-5′-(3,5-difluorophenyl)-1-(5-methyl-1,2,4-oxadi-azole-3-carbonyl)-tetrahydro-3′H-spiro [piperidine-4,2′-pyrrolo[2,1-b][1,3]oxazol]-3′-one] |
| 7.02 | Cc1oncc1C(=O)N1CCC2(CC1)O[C@@H]1CC[C@@H](c3cc(F)cc(F)c3)N1C2=O [Example 6.60, (5′S,7a′R)-5′-(3,5-difluorophenyl)-1-(5-methyl-1,2-oxazole-4-carbonyl)tetrahydro-3′H-spiro[piperidine-4,2′-pyrrolo[2,1-b] [1,3]oxazol]-3′-one] |
| 7.39 | O=C1N2[C@@H](CC[C@H]2c2ccccc2)OC12CCN(c1ncc(-c3cscn3)cn1)CC2 [Example 21.13, (5′S,7a′R)-5′-phenyl-1-[5-(1,3-thiazol-4-yl)pyrimidin-2-yl]tetrahydro-3′H-spiro[piperidine-4,2′-pyrrolo[2,1-b][1,3]oxazol]-3′-one] |
| 7.16 | Cc1ccccc1C(=O)N1CCC2(CC1)O[C@@H]1CC[C@@H](c3cc(F)cc(F)c3)N1C2=O [Example 6.11, (5′S,7a′R)-5′-(3,5-difluorophenyl)-1-(2-methybenzene-1-carbonyl)tetrahydro-3′H-spiro[piperidine-4,2′-pyrrolo[2,1-b] [1,3]oxazol]-3′-one] |
| 6.08 | CC1CC2(CCN1C(=O)c1ncccc1F)O[C@@H]1CC[C@@H](c3cccc(F)c3)N1C2=O (stereo partly drawn) [Example 6.159, (4R,5′S,7a′R)-5′-(3-fluorophenyl)-1-(3-fluoropyridine-2-carbonyl)-2-methyl-tetrahydro-3′H-spiro [piperidine-4,2′-pyrrolo[2,1-b][1,3]oxazol]-3′-one] |
